# From the supplement of paper PMC11208160
# Test: recombinant UMI read abundance after kanamycin selection (control-corrected) (log10(CPM+1)); higher = more efficient recombination; extreme values may be limits of the assay; sequences stand for … in AGTGCAGAGAAAATCGGCCAGTTTTCTCTGCCTGCAGTCCGCATGCCGTGGGACCCCTTGGGTTCTAACCTGTTGCCTAGATTTATGCAGCGGACTGCCTTTCTCCCAAAGTGATAAACCGG…AGGTTGGTTTCACT; site = the 11-nt donor
# Summary of the method: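 Values, expressed as log10(CPM+1), derive from recombinant UMI counts converted to CPM, averaged across replicates and scaled by control-derived factors. Plating was with IPTG (0.07 mM) plus kanamycin or unselected, two replicates each. The screen pooled donor and donor-binding-loop pairs for the IS621 bridge recombinase in Escherichia coli.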
# 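Note: IS621 bridge recombinase in Escherichia coli cells against a fixed T5 target plasmid.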
row,Sequence,recombinant UMI read abundance (log10)
1,TAAACTCCATGGACCGGTTTTCCCGGTAATCCGTATTTGTA (site TAAAGTCCTTA),0.221
2,TAAACTCCATGGACCGGTTTTCCCGGTAATCCGTATTTGTA (site TAAATTCCTTA),0
3,TAAAGTCCATGGACCGGTTTTCCCGGTAATCCGTATTTGTA (site AAAAGTCCTTA),2.17
4,TAAAGTCCATGGACCGGTTTTCCCGGTAATCCGTATTTGTA (site CAAAGTCCTTA),0.47
5,TAAAGTCCATGGACCGGTTTTCCCGGTAATCCGTATTTGTA (site GAAAGTCCTTA),0.00467
6,TAAAGTCCATGGACCGGTTTTCCCGGTAATCCGTATTTGTA (site TAAAATCCTTA),0
7,TAAAGTCCATGGACCGGTTTTCCCGGTAATCCGTATTTGTA (site TAAACTCCTTA),0.531
8,TAAAGTCCATGGACCGGTTTTCCCGGTAATCCGTATTTGTA (site TAAAGACCTTA),0.00959
9,TAAAGTCCATGGACCGGTTTTCCCGGTAATCCGTATTTGTA (site TAAAGCCCTTA),0.452
10,TAAAGTCCATGGACCGGTTTTCCCGGTAATCCGTATTTGTA (site TAAAGGCCTTA),0.00572
11,TAAAGTCCATGGACCGGTTTTCCCGGTAATCCGTATTTGTA (site TAAAGTACTTA),0.459
12,TAAAGTCCATGGACCGGTTTTCCCGGTAATCCGTATTTGTA (site TAAAGTCCTAA),0.0143
13,TAAAGTCCATGGACCGGTTTTCCCGGTAATCCGTATTTGTA (site TAAAGTCCTCA),0.00255
14,TAAAGTCCATGGACCGGTTTTCCCGGTAATCCGTATTTGTA (site TAAAGTCCTGA),0
15,TAAAGTCCATGGACCGGTTTTCCCGGTAATCCGTATTTGTA (site TAAAGTCCTTA),0.722
16,TAAAGTCCATGGACCGGTTTTCCCGGTAATCCGTATTTGTA (site TAAAGTCCTTC),0.00609
17,TAAAGTCCATGGACCGGTTTTCCCGGTAATCCGTATTTGTA (site TAAAGTCCTTG),0.00546
18,TAAAGTCCATGGACCGGTTTTCCCGGTAATCCGTATTTGTA (site TAAAGTCCTTT),0.0573
19,TAAAGTCCATGGACCGGTTTTCCCGGTAATCCGTATTTGTA (site TAAAGTGCTTA),0.00484
20,TAAAGTCCATGGACCGGTTTTCCCGGTAATCCGTATTTGTA (site TAAAGTTCTTA),0.0051
21,TAAAGTCCATGGACCGGTTTTCCCGGTAATCCGTATTTGTA (site TAAATTCCTTA),0.812
22,TAAAGTCCATGGACCGGTTTTCCCGGTAATCCGTATTTGTA (site TAACGTCCTTA),0.243
23,TAAAGTCCATGGACCGGTTTTCCCGGTAATCCGTATTTGTA (site TAAGGTCCTTA),0.198
24,TAAAGTCCATGGACCGGTTTTCCCGGTAATCCGTATTTGTA (site TAATGTCCTTA),0.0108
25,TAAAGTCCATGGACCGGTTTTCCCGGTAATCCGTATTTGTA (site TACAGTCCTTA),0

row,Sequence,recombinant UMI read abundance (log10)
1,TAAAGTCCATGGACCGGTTTTCCCGGTAATCCGTATTTGTA (site TAGAGTCCTTA),0.358
2,TAAAGTCCATGGACCGGTTTTCCCGGTAATCCGTATTTGTA (site TATAGTCCTTA),0.0492
3,TAAAGTCCATGGACCGGTTTTCCCGGTAATCCGTATTTGTA (site TCAAGTCCTTA),0.0268
4,TAAAGTCCATGGACCGGTTTTCCCGGTAATCCGTATTTGTA (site TGAAGTCCTTA),0.00382
5,TAAAGTCCATGGACCGGTTTTCCCGGTAATCCGTATTTGTA (site TTAAGTCCTTA),0.671
6,TAAAGTGCATGGACCGGTTTTCCCGGTAATCCGTATTTGTA (site TAAAGTACTTA),1.36
7,TAAAGTGCATGGACCGGTTTTCCCGGTAATCCGTATTTGTA (site TAAAGTCCTTA),0.72
8,TAAAGTGCATGGACCGGTTTTCCCGGTAATCCGTATTTGTA (site TAAAGTGCTTA),2.22
9,TAAAGTGCATGGACCGGTTTTCCCGGTAATCCGTATTTGTA (site TAAAGTTCTTA),0
10,TAAATGACATGGACCGGTTTTCCCGGTAATCCGTATTTGGA (site TAAATGACTTC),1.23
11,TAAATTCCATGGACCGGTTTTCCCGGTAATCCGTATTTGGG (site TAAATTCCTCC),0
12,TAAATTCCATGGACCGGTTTTCCCGGTAATCCGTATTTGTA (site TAAAATCCTTA),0.00321
13,TAAATTCCATGGACCGGTTTTCCCGGTAATCCGTATTTGTA (site TAAACTCCTTA),0.00609
14,TAAATTCCATGGACCGGTTTTCCCGGTAATCCGTATTTGTA (site TAAAGTCCTTA),0.471
15,TAAATTCCATGGACCGGTTTTCCCGGTAATCCGTATTTGTA (site TAAATTCCTTA),0.558
16,TAACAGGCATGGACCGGTTTTCCCGGTAATCCGTATTTGTT (site TAACAGGCTAA),1.1
17,TAACCACCATGGACCGGTTTTCCCGGTAATCCGTATTTGAT (site TAACCACCTAT),0.0138
18,TAACCCGCATGGACCGGTTTTCCCGGTAATCCGTATTTGTG (site TAACCCGCTCA),0.00831
19,TAACGTCCATGGACCGGTTTTCCCGGTAATCCGTATTTGTA (site TAAAGTCCTTA),0.571
20,TAACGTCCATGGACCGGTTTTCCCGGTAATCCGTATTTGTA (site TAACGTCCTTA),0.935
21,TAACGTCCATGGACCGGTTTTCCCGGTAATCCGTATTTGTA (site TAAGGTCCTTA),0.0133
22,TAACGTCCATGGACCGGTTTTCCCGGTAATCCGTATTTGTA (site TAATGTCCTTA),0.00898
23,TAAGACACATGGACCGGTTTTCCCGGTAATCCGTATTTGTT (site TAAGACACTAA),1.94
24,TAAGAGACATGGACCGGTTTTCCCGGTAATCCGTATTTGCG (site TAAGAGACTCG),2.41
25,TAAGAGACATGGACCGGTTTTCCCGGTAATCCGTATTTGCG (site TCAGAGACTCG),0.896

row,Sequence,recombinant UMI read abundance (log10)
1,TAAGAGACATGGACCGGTTTTCCCGGTAATCCGTATTTGCG (site TGAGAGACTCG),0.483
2,TAAGAGACATGGACCGGTTTTCCCGGTAATCCGTATTTGCG (site TTAGAGACTCG),1.14
3,TAAGATACATGGACCGGTTTTCCCGGTAATCCGTATTTGCT (site TAAGATACTAG),2.11
4,TAAGATGCATGGACCGGTTTTCCCGGTAATCCGTATTTGGG (site ATCCTCTCTGG),0
5,TAAGGAGCATGGACCGGTTTTCCCGGTAATCCGTATTTGGG (site TAAAGAGCTCC),0.628
6,TAAGGAGCATGGACCGGTTTTCCCGGTAATCCGTATTTGGG (site TAACGAGCTCC),0
7,TAAGGAGCATGGACCGGTTTTCCCGGTAATCCGTATTTGGG (site TAAGGAGCTCC),0.164
8,TAAGGAGCATGGACCGGTTTTCCCGGTAATCCGTATTTGGG (site TAATGAGCTCC),0.0199
9,TAAGTCACATGGACCGGTTTTCCCGGTAATCCGTATTTGAC (site TAAGTCACTGT),2.35
10,TAAGTTTCATGGACCGGTTTTCCCGGTAATCCGTATTTGGA (site TAAGTTTCTTC),2.13
11,TAATAAGCATGGACCGGTTTTCCCGGTAATCCGTATTTGGG (site TAATAAGCTCC),0.013
12,TAATAAGCATGGACCGGTTTTCCCGGTAATCCGTATTTGGG (site TAATCAGCTCC),0.012
13,TAATAAGCATGGACCGGTTTTCCCGGTAATCCGTATTTGGG (site TAATGAGCTCC),0.00879
14,TAATAAGCATGGACCGGTTTTCCCGGTAATCCGTATTTGGG (site TAATTAGCTCC),0.507
15,TAATCAGCATGGACCGGTTTTCCCGGTAATCCGTATTTGTC (site TAATCAGCTGA),1.93
16,TAATGAGCATGGACCGGTTTTCCCGGTAATCCGTATTTGAG (site TAATGAGCTCA),0.196
17,TAATGAGCATGGACCGGTTTTCCCGGTAATCCGTATTTGAG (site TAATGAGCTCC),0.104
18,TAATGAGCATGGACCGGTTTTCCCGGTAATCCGTATTTGAG (site TAATGAGCTCG),0.341
19,TAATGAGCATGGACCGGTTTTCCCGGTAATCCGTATTTGAG (site TAATGAGCTCT),1.33
20,TAATGAGCATGGACCGGTTTTCCCGGTAATCCGTATTTGCG (site TAATGAGCTCA),0.385
21,TAATGAGCATGGACCGGTTTTCCCGGTAATCCGTATTTGCG (site TAATGAGCTCC),0.00423
22,TAATGAGCATGGACCGGTTTTCCCGGTAATCCGTATTTGCG (site TAATGAGCTCG),1.58
23,TAATGAGCATGGACCGGTTTTCCCGGTAATCCGTATTTGCG (site TAATGAGCTCT),0.626
24,TAATGAGCATGGACCGGTTTTCCCGGTAATCCGTATTTGGG (site AAATGAGCTCC),0.117
25,TAATGAGCATGGACCGGTTTTCCCGGTAATCCGTATTTGGG (site CAATGAGCTCC),0.0721
